Assay results published in patent US20080242688A1, “Method 741” (ASTRAZENECA AB, priority 2007, published 2008).
Where “and” joins values, the source holds several entries; their conditions need not be identical. Equal values may be shown once.

What was measured:
[1] = Single dose PK/TK, rabbit; details: New Zealand White, in vivo
Text: (§1) This section provides a summary of the pharmacokinetic and metabolism properties of AZD0328 derived from in vivo studies. […] The derived PK/TK parameters from these studies are presented in Table 4 for single dose studies (DMR4, 0619LR, 20030191PCR, DMO16, DMB10, DMW12, 50190, 0190DD and 03.330/1), and are presented in Table 5 multiple dose PK/TK studies (DMR4, 0612AR, DMB15, 50190, 0190DD and 0295AD).

[2] = test system: putative dopaminergic neurons within the VTA; assay: Ventral Tegmental Area dopamine neuron firing; type: in vivo; details: rat, iv, 0.17-0.5 h
[3] = Single oral dose pharmacokinetics in healthy human volunteers; type: in vivo; set-up: AUC/dose: unit not given beside the values; details: for Cmax / Tmax / AUC / AUC(0-t) / half-life: human, plasma; for Cmax / AUC / AUC(0-t) / half-life / Cmax/Dose / AUC/dose / CL/F: geometric mean; for Tmax: median
Method: Total oral doses of AZD0328 in the range 0.025-0.68 mg produced mean plasma concentrations of 0.6-15 nM, consistent with the range of plasma concentrations found to be associated with improved performance in the spatial delayed response test in monkeys. Total oral doses of AZD0328 in the range 0.005-2 mg produced mean plasma concentrations of 0.17-43.9 nM, within the range of plasma concentrations found to be associated with improved performance in rodent models.

Multiple dose PK/TK, dog = type: in vivo; details: both sexes, dog, in vivo, po, 34.6 mg/kg, dog 2F+2M, 0190DD, 34.6 mg/kg (160 μmol/kg) split in two 6 h apart
Text: as §1

[4] = female, sc, rabbit 3F, DMB10, single subcutaneous 2.16 mg/kg (10 μmol/kg)
[5] = female, sc, rabbit 3F, DMB10, single subcutaneous 6.49 mg/kg (30 μmol/kg)

c1cnc2c(c1)C[C@@]1(CN3CCC1CC3)O2 [AZD0328, (R)-Spiro[1-azabicyclo[2.2.2]octane-3,2′(3′H)-furo[2,3-b]pyridine]]
half-life ([1]; rabbit, read-out: elimination half-life): < 300 min
AUC [1, 4]: 1750 ng·h/mL and 8.1 µM·h
Cmax [1, 4]: 589 ng/mL and 2.72 µM
Tmax [1, 4]: 30 to 67.2 min
half-life ([1]; female, sc, rabbit 3F, DMB10, single subcutaneous 2.16 mg/kg (10 μmol/kg), read-out: T½ (converted)): 163 ± 70.2 min
AUC [1, 5]: 7340 ng·h/mL and 33.9 µM·h
Cmax [1, 5]: 1750 ± 56 ng/mL
Tmax [1, 5]: 16 to 64.8 min
half-life ([1]; female, sc, rabbit 3F, DMB10, single subcutaneous 6.49 mg/kg (30 μmol/kg), read-out: T½ (converted)): 274 ± 81.6 min
Dose active: Ventral Tegmental Area dopamine neuron firing - increased [2]: 1.38 µg/kg
Cmax ([3]; single oral dose 0.005 mg): 0.17 nM
Tmax ([3]; single oral dose 0.005 mg): 0.8 h
AUC ([3]; single oral dose 0.025 mg): 0.0061 µM·h
AUC(0-t) ([3]; single oral dose 0.025 mg): 0.0046 µM·h
Cmax ([3]; single oral dose 0.025 mg): 0.6 nM
half-life ([3]; single oral dose 0.025 mg): 378 min
Tmax ([3]; single oral dose 0.025 mg): 1.3 h
AUC ([3]; single oral dose 0.075 mg): 0.0169 µM·h
AUC(0-t) ([3]; single oral dose 0.075 mg): 0.0156 µM·h
Cmax ([3]; single oral dose 0.075 mg): 2.1 nM
half-life ([3]; single oral dose 0.075 mg): 354 min
Tmax ([3]; single oral dose 0.075 mg): 1.5 h
AUC ([3]; single oral dose 0.23 mg): 0.0652 µM·h
AUC(0-t) ([3]; single oral dose 0.23 mg): 0.0588 µM·h
Cmax ([3]; single oral dose 0.23 mg): 6.4 nM
half-life ([3]; single oral dose 0.23 mg): 402 min
Tmax ([3]; single oral dose 0.23 mg): 1.5 h
AUC ([3]; single oral dose 0.68 mg): 0.144 µM·h
AUC(0-t) ([3]; single oral dose 0.68 mg): 0.133 µM·h
Cmax ([3]; single oral dose 0.68 mg): 15 nM
half-life ([3]; single oral dose 0.68 mg): 360 min
Tmax ([3]; single oral dose 0.68 mg): 2.2 h
AUC ([3]; single oral dose 1.35 mg): 0.333 µM·h
AUC(0-t) ([3]; single oral dose 1.35 mg): 0.3 µM·h
Cmax ([3]; single oral dose 1.35 mg): 31 nM
half-life ([3]; single oral dose 1.35 mg): 414 min
Tmax ([3]; single oral dose 1.35 mg): 3.2 h
AUC ([3]; single oral dose 2 mg): 0.421 µM·h
AUC(0-t) ([3]; single oral dose 2 mg): 0.395 µM·h
Cmax ([3]; single oral dose 2 mg): 43.9 nM
half-life ([3]; single oral dose 2 mg): 336 min
Tmax ([3]; single oral dose 2 mg): 2.5 h
Cmax/Dose ([3]; single oral dose 0.005 mg): 0.007
AUC/dose ([3]; single oral dose 0.025 mg): 0.053
CL/F ([3]; single oral dose 0.025 mg): 19.0 L/h
Cmax/Dose ([3]; single oral dose 0.025 mg): 0.006
AUC/dose ([3]; single oral dose 0.075 mg): 0.049
CL/F ([3]; single oral dose 0.075 mg): 20.5 L/h
Cmax/Dose ([3]; single oral dose 0.075 mg): 0.006
AUC/dose ([3]; single oral dose 0.23 mg): 0.061
CL/F ([3]; single oral dose 0.23 mg): 16.3 L/h
Cmax/Dose ([3]; single oral dose 0.23 mg): 0.006
AUC/dose ([3]; single oral dose 0.68 mg): 0.046
CL/F ([3]; single oral dose 0.68 mg): 21.9 L/h
Cmax/Dose ([3]; single oral dose 0.68 mg): 0.005
AUC/dose ([3]; single oral dose 1.35 mg): 0.054
CL/F ([3]; single oral dose 1.35 mg): 18.7 L/h
Cmax/Dose ([3]; single oral dose 1.35 mg): 0.005
AUC/dose ([3]; single oral dose 2 mg): 0.046
CL/F ([3]; single oral dose 2 mg): 22.0 L/h
Cmax/Dose ([3]; single oral dose 2 mg): 0.005
mean plasma concentrations ([3]; total oral doses 0.005-2 mg): 0.17 to 43.9 nM
mean plasma concentrations ([3]; total oral doses 0.025-0.68 mg): 0.6 to 15 nM
AUC (Multiple dose PK/TK, dog; capsules fasted, day 1): 4430 ng·h/mL and 20.5 µM·h
Cmax (Multiple dose PK/TK, dog; capsules fasted, day 1): 694 ng/mL and 3.21 µM
Tmax (Multiple dose PK/TK, dog; capsules fasted, day 1): 1 to 3 h
AUC (Multiple dose PK/TK, dog; capsules fasted, day 7): 6970 ng·h/mL and 32.2 µM·h
Cmax (Multiple dose PK/TK, dog; capsules fasted, day 7): 2120 ng/mL and 9.79 µM
Tmax (Multiple dose PK/TK, dog; capsules fasted, day 7): 1 h
AUC (Multiple dose PK/TK, dog; solution fasted, day 1): 4890 ng·h/mL and 22.6 µM·h
